# Laboratory results taken from ChEMBL document CHEMBL5291721, “A preclinical secondary pharmacology resource illuminates target-adverse drug reaction associations of marketed drugs” (Nat Commun, 2023).
# Experiments:
# Bile acid receptor [1] = biological target: T1, Bile acid receptor (Homo sapiens, UniProt Q96RI1); format: functional
# T1 sequence (Q96RI1 whole entry): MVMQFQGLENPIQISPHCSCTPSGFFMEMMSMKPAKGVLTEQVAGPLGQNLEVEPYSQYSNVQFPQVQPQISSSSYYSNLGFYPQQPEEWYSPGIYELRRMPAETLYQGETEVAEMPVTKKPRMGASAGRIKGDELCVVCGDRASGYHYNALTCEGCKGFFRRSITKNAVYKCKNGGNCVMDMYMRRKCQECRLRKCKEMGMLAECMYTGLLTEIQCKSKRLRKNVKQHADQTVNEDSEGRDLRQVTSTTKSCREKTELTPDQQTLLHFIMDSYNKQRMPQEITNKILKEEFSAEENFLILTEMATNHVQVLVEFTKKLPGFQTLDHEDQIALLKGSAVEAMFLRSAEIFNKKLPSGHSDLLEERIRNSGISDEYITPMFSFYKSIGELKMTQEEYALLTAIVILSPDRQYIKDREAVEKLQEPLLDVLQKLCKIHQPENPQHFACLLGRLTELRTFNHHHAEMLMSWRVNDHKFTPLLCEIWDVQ
# Bile acid receptor [2] = biological target: T1, Bile acid receptor; format: functional; remark: listed apart in the source
# Bile acid receptor [3] = biological target: T1, Bile acid receptor; format: functional; remark: listed apart in the source
# [4] = biological target: T2, Retinoic acid receptor alpha (Homo sapiens, UniProt P10276); format: functional, cell-based
# T2 sequence (P10276 whole entry): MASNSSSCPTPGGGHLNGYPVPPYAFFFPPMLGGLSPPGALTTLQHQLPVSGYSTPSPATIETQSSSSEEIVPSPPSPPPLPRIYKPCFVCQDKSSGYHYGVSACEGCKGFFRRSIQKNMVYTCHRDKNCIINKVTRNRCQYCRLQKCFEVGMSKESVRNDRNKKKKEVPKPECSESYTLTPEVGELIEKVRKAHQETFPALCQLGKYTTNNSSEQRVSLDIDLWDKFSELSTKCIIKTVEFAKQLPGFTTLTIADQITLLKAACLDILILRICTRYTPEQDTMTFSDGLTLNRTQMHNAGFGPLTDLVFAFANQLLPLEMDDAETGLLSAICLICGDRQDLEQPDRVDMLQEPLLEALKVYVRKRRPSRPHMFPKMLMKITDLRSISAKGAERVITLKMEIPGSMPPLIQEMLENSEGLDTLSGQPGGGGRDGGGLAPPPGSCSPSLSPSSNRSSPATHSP
# Bile acid receptor [5] = biological target: T1, Bile acid receptor; format: functional; remark: listed apart in the source
# [6] = biological target: T3, Oxysterols receptor LXR-beta (Homo sapiens, UniProt P55055); format: functional
# T3 sequence (P55055 whole entry): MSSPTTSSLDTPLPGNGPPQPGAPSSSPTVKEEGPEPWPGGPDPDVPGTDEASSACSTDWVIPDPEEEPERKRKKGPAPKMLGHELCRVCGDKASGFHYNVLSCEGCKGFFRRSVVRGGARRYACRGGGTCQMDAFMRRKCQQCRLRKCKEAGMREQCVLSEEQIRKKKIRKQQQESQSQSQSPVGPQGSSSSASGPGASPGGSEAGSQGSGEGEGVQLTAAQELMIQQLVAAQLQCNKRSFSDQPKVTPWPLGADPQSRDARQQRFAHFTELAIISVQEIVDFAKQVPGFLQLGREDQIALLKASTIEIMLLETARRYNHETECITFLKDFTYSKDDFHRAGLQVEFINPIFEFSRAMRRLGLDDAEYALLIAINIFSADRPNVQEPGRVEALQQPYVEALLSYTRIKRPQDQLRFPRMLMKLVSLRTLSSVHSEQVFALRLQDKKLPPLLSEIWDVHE
# [7] = biological target: T4, Retinoic acid receptor gamma (Homo sapiens, UniProt P13631); format: functional, cell-based
# T4 sequence (P13631 whole entry): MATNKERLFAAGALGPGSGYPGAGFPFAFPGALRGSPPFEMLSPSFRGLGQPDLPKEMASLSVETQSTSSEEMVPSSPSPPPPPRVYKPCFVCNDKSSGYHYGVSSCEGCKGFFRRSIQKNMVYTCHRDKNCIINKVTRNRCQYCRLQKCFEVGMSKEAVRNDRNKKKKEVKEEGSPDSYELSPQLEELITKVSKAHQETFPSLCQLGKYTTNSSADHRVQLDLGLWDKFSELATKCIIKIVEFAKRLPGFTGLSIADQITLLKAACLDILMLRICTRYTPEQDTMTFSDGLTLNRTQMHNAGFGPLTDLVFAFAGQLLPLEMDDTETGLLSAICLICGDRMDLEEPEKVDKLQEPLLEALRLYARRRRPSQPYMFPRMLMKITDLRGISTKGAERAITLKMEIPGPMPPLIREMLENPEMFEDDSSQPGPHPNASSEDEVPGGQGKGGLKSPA
# [8] = biological target: T5, Retinoic acid receptor beta (Homo sapiens, UniProt P10826); format: functional, cell-based
# T5 sequence (P10826 whole entry): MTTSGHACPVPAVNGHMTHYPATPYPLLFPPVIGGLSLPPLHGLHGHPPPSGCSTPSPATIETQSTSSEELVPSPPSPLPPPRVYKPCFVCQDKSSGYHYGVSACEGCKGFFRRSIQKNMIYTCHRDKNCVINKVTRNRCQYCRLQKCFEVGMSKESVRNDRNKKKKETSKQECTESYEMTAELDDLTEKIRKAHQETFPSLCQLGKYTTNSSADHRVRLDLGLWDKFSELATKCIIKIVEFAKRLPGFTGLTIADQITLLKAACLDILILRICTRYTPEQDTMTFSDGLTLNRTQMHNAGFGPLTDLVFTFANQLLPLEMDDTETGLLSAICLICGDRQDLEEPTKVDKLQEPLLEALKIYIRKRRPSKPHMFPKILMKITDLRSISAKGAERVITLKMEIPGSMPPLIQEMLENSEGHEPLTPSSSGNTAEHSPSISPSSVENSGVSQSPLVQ
# [9] = biological target: T6, Muscarinic acetylcholine receptor M1 (Homo sapiens, UniProt P11229)
# T6 sequence (P11229 whole entry): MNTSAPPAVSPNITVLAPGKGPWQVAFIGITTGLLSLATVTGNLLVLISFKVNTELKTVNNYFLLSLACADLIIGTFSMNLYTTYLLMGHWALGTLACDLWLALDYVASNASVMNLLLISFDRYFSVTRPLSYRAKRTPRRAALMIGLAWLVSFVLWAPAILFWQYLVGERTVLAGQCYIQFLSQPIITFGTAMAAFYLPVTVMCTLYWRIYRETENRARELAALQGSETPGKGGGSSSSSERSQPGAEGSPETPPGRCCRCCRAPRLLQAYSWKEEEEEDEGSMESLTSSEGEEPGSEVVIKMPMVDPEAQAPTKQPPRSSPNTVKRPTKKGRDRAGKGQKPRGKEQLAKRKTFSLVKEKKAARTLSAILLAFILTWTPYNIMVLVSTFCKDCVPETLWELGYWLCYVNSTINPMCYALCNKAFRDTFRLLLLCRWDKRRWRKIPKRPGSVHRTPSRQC
# Also: assay procedure not described here.
Structure (SMILES),AC50 (Bile acid receptor [1]),AC50 (Bile acid receptor [2]),AC50 (Bile acid receptor [3]),AC50 [4],AC50 (Bile acid receptor [5]),AC50 [6],AC50 [7],AC50 [8],AC50 [9]
COc1ccc2c(c1)C(=O)N(CCc1ccc(S(=O)(=O)NC(=O)NC3CCCCC3)cc1)C(=O)C2(C)C [GLIQUIDONE],> 30 µM,> 10 µM,> 30 µM,22 µM,> 10 µM,> 30 µM,2.6 µM,24 µM,–
Cc1cc2c(cc1CC(=O)c1sccc1S(=O)(=O)Nc1onc(C)c1Cl)OCO2 [SITAXENTAN],–,–,–,–,–,–,–,–,> 30 µM
